Test results taken from the supplement of paper PMC10307832.

Assays:
Experiment in all cases: relative viability (nuclei count vs DMSO), 5 days (fraction); higher = more cells survive
IU1-47 + Trametinib = compound: CC1=CC(=C(N1C2=CC=C(C=C2)Cl)C)C(=O)CN3CCCCC3 [IU1-47] + CC(=O)Nc1cccc(-n2c(=O)n(C3CC3)c(=O)c3c(Nc4ccc(I)cc4F)n(C)c(=O)c(C)c32)c1 [Trametinib] (partner 0.02 µM)
Summary of the method: (§1)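 For relative viability, nuclei counts in treated wells were divided by those in vehicle wells. Lung cancer cell lines had been pin-tool dosed in 1536-well plates the day after seeding and cultured for 5 days, then fixed and stained in one step (final 0.05% Triton X-100, 1% formaldehyde, 1 ug/ml Hoechst) and imaged at 4×. Doses were one drug alone or a fixed anchor-drug dose plus five library-drug doses (not always all listed) in √10 steps, and values are duplicate-plate medians.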

IU1-47 + Tozasertib = compound: CC1=CC(=C(N1C2=CC=C(C=C2)Cl)C)C(=O)CN3CCCCC3 [IU1-47] + Cc1cc(Nc2cc(N3CCN(C)CC3)nc(Sc3ccc(NC(=O)C4CC4)cc3)n2)n[nH]1 [Tozasertib] (partner 0.1 µM)
Summary of the method: as §1

IU1-47 + Navitoclax = compound: CC1=CC(=C(N1C2=CC=C(C=C2)Cl)C)C(=O)CN3CCCCC3 [IU1-47] + CC1(C)CCC(c2ccc(Cl)cc2)=C(CN2CCN(c3ccc(C(=O)NS(=O)(=O)c4ccc(N[C@H](CCN5CCOCC5)CSc5ccccc5)c(S(=O)(=O)C(F)(F)F)c4)cc3)CC2)C1 [Navitoclax] (partner 0.5 µM)
Summary of the method: as §1

IU1-47 + Foretinib = compound: CC1=CC(=C(N1C2=CC=C(C=C2)Cl)C)C(=O)CN3CCCCC3 [IU1-47] + COc1cc2c(Oc3ccc(NC(=O)C4(C(=O)Nc5ccc(F)cc5)CC4)cc3F)ccnc2cc1OCCCN1CCOCC1 [Foretinib] (partner 0.25 µM)
Summary of the method: as §1

Cell Line: UMC-11
- relative viability (IU1-47 + Trametinib; first compound 0.08 µM): 0.681
- relative viability (IU1-47 + Trametinib; first compound 0.253 µM): 0.681
- relative viability (IU1-47 + Trametinib; first compound 0.8 µM): 0.748
- relative viability (IU1-47 + Trametinib; first compound 2.53 µM): 0.741
- relative viability (IU1-47 + Trametinib; first compound 8 µM): 0.664
- relative viability (IU1-47 + Tozasertib; first compound 0.08 µM): 0.215
- relative viability (IU1-47 + Tozasertib; first compound 0.253 µM): 0.209
- relative viability (IU1-47 + Tozasertib; first compound 0.8 µM): 0.201
- relative viability (IU1-47 + Tozasertib; first compound 2.53 µM): 0.218
- relative viability (IU1-47 + Tozasertib; first compound 8 µM): 0.214
- relative viability (IU1-47 + Navitoclax; first compound 0.08 µM): 0.297
- relative viability (IU1-47 + Navitoclax; first compound 0.253 µM): 0.315
- relative viability (IU1-47 + Navitoclax; first compound 0.8 µM): 0.329
- relative viability (IU1-47 + Navitoclax; first compound 2.53 µM): 0.349
- relative viability (IU1-47 + Navitoclax; first compound 8 µM): 0.313
- relative viability (IU1-47 + Foretinib; first compound 0.08 µM): 1.13
- relative viability (IU1-47 + Foretinib; first compound 0.253 µM): 0.99
- relative viability (IU1-47 + Foretinib; first compound 0.8 µM): 1.25
- relative viability (IU1-47 + Foretinib; first compound 2.53 µM): 1.15
- relative viability (IU1-47 + Foretinib; first compound 8 µM): 1.13
